Reference: patent US20230130134A1, “METHOD OF TREATING VIRAL INFECTIONS WITH HEXOSE TYPE MONOSACCHARIDES AND ANALOGS THEREOF” (Board of Regents, The University of Texas System, priority 2020, published 2023)

Assay: Tissue distribution of tritium-labeled WP1122 and 2-DG in lungs after intravenous administration (liquid scintillation counting)
Assay type: in vivo
Details: male Sprague-Dawley rats; for Detection of 2-DG and metabolites in lungs: i.v., 15, 30, 60 min, 6 and 24 hours post-dose
Method: Experimental procedures. The pharmacokinetic and tissue organ distribution of WP1122 and 2-DG labeled with tritium was analyzed in male Sprague-Dawley rats. Animals (n=3 per timepoint) were dosed intravenously with 2-DG or WP1122 at equimolar dose 0.2 and 0.13 g/kg for WP1122 and 2-DG respectively. The animals were euthanized at 15, 30, 60 min and 6- and 24-hours post-dose. The organs were extracted, rinsed with PBS and radioactivity was measured using Liquid Scintillation Counting (LCS).

Structure (SMILES)	Detection of 2-DG and metabolites in lungs	Presence of metabolites in lungs compared with 2-DG administration (i.v., all time points including 24 hours after administration)	Highest concentration of radiolabeled compounds in lungs relative to radioactivity from 2-DG administration (i.v., equimolar 0.2 g/kg WP1122 vs 0.13 g/kg 2-DG, 15 min post injection)
CC(=O)OC[C@H]1OC(O)C[C@@H](OC(C)=O)[C@@H]1O (stereo partly drawn) [WP1122, ((2R,3S,4R)-4-acetoxy-3,6-dihydroxytetrahydro-2H-pyran-2-yl)methyl acetate]	detected in lungs in all tested time-points	Increased presence of metabolites	nearly three times higher
OC[C@H]1OC(O)C[C@@H](O)[C@@H]1O (stereo partly drawn) [Example 2-DG, (4R,5S,6R)-6-(hydroxymethyl)tetrahydro-2H-pyran-2,4,5-triol, reference compound]	detected in lungs in all tested time-points		
